Article PMC7656562 (Journal of medicinal chemistry, 2019)
Read-outs that look alike come from different tables or passages of the source.

How the values were obtained:
hCB1 [1] = target: T1, hCB1 (Homo sapiens, UniProt P21554); experiment: cell-based
hCB1 [2] = target: T1, hCB1; settings: calcium assay, basal signaling
[3] = mouse, 0.3 mg/kg PO
[4] = rat, 1 mg/kg PO
[5] = test system: SafetyScreen44 Panel targets
[6] = test system: alcohol-induced liver steatosis; experiment: Alcohol induced hepatic steatosis study; assay type: in vivo, mouse; settings: female C57BL6 mice on ethanol diet; 0.03, 0.1, 0.3 mg/kg once daily oral gavage, last 2 weeks; effect at the two higher doses; p < 0.05 versus ethanol + vehicle
hCB1 [7] = target: T1, hCB1; settings: ratio Ki hCB2/Ki hCB1

T1 sequence (P21554 whole entry): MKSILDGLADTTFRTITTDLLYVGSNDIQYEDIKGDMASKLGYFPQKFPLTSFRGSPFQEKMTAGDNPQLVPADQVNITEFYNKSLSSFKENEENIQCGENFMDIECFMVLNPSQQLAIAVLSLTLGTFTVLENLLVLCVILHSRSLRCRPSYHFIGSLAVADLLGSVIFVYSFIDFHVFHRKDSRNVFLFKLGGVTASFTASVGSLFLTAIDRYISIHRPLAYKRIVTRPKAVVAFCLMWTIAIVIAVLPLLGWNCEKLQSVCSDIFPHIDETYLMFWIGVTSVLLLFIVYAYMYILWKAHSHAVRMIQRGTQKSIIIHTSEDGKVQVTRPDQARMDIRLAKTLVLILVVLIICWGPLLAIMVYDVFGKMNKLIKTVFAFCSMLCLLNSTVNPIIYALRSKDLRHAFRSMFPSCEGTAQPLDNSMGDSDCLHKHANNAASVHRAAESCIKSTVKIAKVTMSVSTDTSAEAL

Row | Structure (SMILES) | Kb (hCB1 [1]) [nM] | other results
1 | CCCN(CC(F)(F)F)C(=O)NC1CCN(c2ncnc3c2nc(-c2ccccc2Cl)n3-c2ccc(Cl)cc2)CC1 [Compound 12, 1-{1-[8-(2-Chlorophenyl)-9-(4-chlorophenyl)-9H-purin-6-yl]-piperidin-4-yl}-3-propyl-3-(2,2,2-trifluoroethyl)urea] | 1.2 ± 0.6 | –
2 | CC(C)(C)CNC(=O)NC1CCN(c2ncnc3c2nc(-c2ccccc2Cl)n3-c2ccc(Cl)cc2)CC1 [Compound 14, 1-{1-[8-(2-Chlorophenyl)-9-(4-chlorophenyl)-9H-purin-6-yl]-piperidin-4-yl}-3-(2,2-dimethylpropyl)urea] | 270 ± 130 | –
3 | O=C(NC1CCN(c2ncnc3c2nc(-c2ccccc2Cl)n3-c2ccc(Cl)cc2)CC1)N1CCCC1 [Compound 16, N-{1-[8-(2-Chlorophenyl)-9-(4-chlorophenyl)-9H-purin-6-yl]-piperidin-4-yl}pyrrolidine-1-carboxamide] | 190 ± 110 | –
4 | O=C(NC1CCN(c2ncnc3c2nc(-c2ccccc2Cl)n3-c2ccc(Cl)cc2)CC1)N1CCCCC1 [Compound 17, N-{1-[8-(2-Chlorophenyl)-9-(4-chlorophenyl)-9H-purin-6-yl]-piperidin-4-yl}piperidine-1-carboxamide] | 7 ± 4 | –
5 | O=C(NC1CCN(c2ncnc3c2nc(-c2ccccc2Cl)n3-c2ccc(Cl)cc2)CC1)N1CCOCC1 [Compound 18, N-{1-[8-(2-Chlorophenyl)-9-(4-chlorophenyl)-9H-purin-6-yl]-piperidin-4-yl}morpholine-4-carboxamide] | 340 ± 60 | –
6 | O=C(NC1CCN(c2ncnc3c2nc(-c2ccccc2Cl)n3-c2ccc(Cl)cc2)CC1)NC1(C(F)(F)F)CCCC1 [Compound 20, 1-{1-[8-(2-Chlorophenyl)-9-(4-chlorophenyl)-9H-purin-6-yl]-piperidin-4-yl}-3-[1-(trifluoromethyl)cyclopentyl]urea] | 12 ± 8 | –
7 | O=C(NC1CCCCC1)NC1CCN(c2ncnc3c2nc(-c2ccccc2Cl)n3-c2ccc(Cl)cc2)CC1 [Compound 21, 3-{1-[8-(2-Chlorophenyl)-9-(4-chlorophenyl)-9H-purin-6-yl]-piperidin-4-yl}-1-cyclohexylurea] | 35 ± 10 | –
8 | CC1(NC(=O)NC2CCN(c3ncnc4c3nc(-c3ccccc3Cl)n4-c3ccc(Cl)cc3)CC2)CCC(F)(F)CC1 [Compound 23, 3-{1-[8-(2-Chlorophenyl)-9-(4-chlorophenyl)-9H-purin-6-yl]-piperidin-4-yl}-1-(4,4-difluoro-1-methylcyclohexyl)urea] | 0.4 ± 0.3 | –
9 | O=C(NCC1CCCCC1)NC1CCN(c2ncnc3c2nc(-c2ccccc2Cl)n3-c2ccc(Cl)cc2)CC1 [Compound 25, 3-{1-[8-(2-Chlorophenyl)-9-(4-chlorophenyl)-9H-purin-6-yl]-piperidin-4-yl}-1-(cyclohexylmethyl)urea] | 5 ± 3 | –
10 | O=C(NCC1CCC(F)(F)CC1)NC1CCN(c2ncnc3c2nc(-c2ccccc2Cl)n3-c2ccc(Cl)cc2)CC1 [Compound 26, 3-{1-[8-(2-Chlorophenyl)-9-(4-chlorophenyl)-9H-purin-6-yl]-piperidin-4-yl}-1-[(4,4-difluorocyclohexyl)methyl]urea] | 28 ± 15 | –
11 | CN1CCC(CNC(=O)NC2CCN(c3ncnc4c3nc(-c3ccccc3Cl)n4-c3ccc(Cl)cc3)CC2)CC1 [Compound 27, 3-{1-[8-(2-Chlorophenyl)-9-(4-chlorophenyl)-9H-purin-6-yl]-piperidin-4-yl}-1-[(1-methylpiperidin-4-yl)methyl]urea] | 25000 ± 12000 | –
12 | O=C(Nc1ccccn1)NC1CCN(c2ncnc3c2nc(-c2ccccc2Cl)n3-c2ccc(Cl)cc2)CC1 [Compound 31, 3-{1-[8-(2-Chlorophenyl)-9-(4-chlorophenyl)-9H-purin-6-yl]-piperidin-4-yl}-1-(pyridin-2-yl)urea] | 150 ± 50 | –
13 | O=C(Nc1ccc(F)cc1F)NC1CCN(c2ncnc3c2nc(-c2ccccc2Cl)n3-c2ccc(Cl)cc2)CC1 [Compound 33, 3-{1-[8-(2-Chlorophenyl)-9-(4-chlorophenyl)-9H-purin-6-yl]-piperidin-4-yl}-1-(2,4-difluorophenyl)urea] | – | neutral antagonist or inverse agonist of hCB1 (hCB1 [2]): inverse agonists; plasma HL [3]: 12 h; time of plasma max. conc. [3]: 1 h; plasma HL [4]: 12 h
14 | O=C(Nc1ccc(F)c(F)c1)NC1CCN(c2ncnc3c2nc(-c2ccccc2Cl)n3-c2ccc(Cl)cc2)CC1 [Compound 34, 3-{1-[8-(2-Chlorophenyl)-9-(4-chlorophenyl)-9H-purin-6-yl]-piperidin-4-yl}-1-(3,4-difluorophenyl)urea] | 290 ± 80 | –
15 | O=C(Nc1cccnc1C(F)(F)F)NC1CCN(c2ncnc3c2nc(-c2ccccc2Cl)n3-c2ccc(Cl)cc2)CC1 [Compound 36, 3-{1-[8-(2-Chlorophenyl)-9-(4-chlorophenyl)-9H-purin-6-yl]-piperidin-4-yl}-1-[2-(trifluoromethyl)pyridin-3-yl]urea] | 160 ± 60 | –
16 | O=C(Nc1ccc(OC(F)F)nc1)NC1CCN(c2ncnc3c2nc(-c2ccccc2Cl)n3-c2ccc(Cl)cc2)CC1 [Compound 38, 3-{1-[8-(2-Chlorophenyl)-9-(4-chlorophenyl)-9H-purin-6-yl]-piperidin-4-yl}-1-[6-(difluoromethoxy)pyridin-3-yl]urea] | – | neutral antagonist or inverse agonist of hCB1 (hCB1 [2]): inverse agonists; EC50 or IC50 on all targets tested [5]: > 10000 nM; plasma HL [3]: 11 h; hepatic lipid droplets (Oil Red O staining, ImageJ quantification) [6]: statistically significant reduction of liver steatosis
17 | O=C(Nc1cc(C(F)(F)F)[nH]n1)NC1CCN(c2ncnc3c2nc(-c2ccccc2Cl)n3-c2ccc(Cl)cc2)CC1 [Compound 39, 1-{1-[8-(2-Chlorophenyl)-9-(4-chlorophenyl)-9H-purin-6-yl]-piperidin-4-yl}-3-[5-(trifluoromethyl)-1H-pyrazol-3-yl]urea] | 270 ± 60 | –
18 | Cn1cc(NC(=O)NC2CCN(c3ncnc4c3nc(-c3ccccc3Cl)n4-c3ccc(Cl)cc3)CC2)cn1 [Compound 40, 1-{1-[8-(2-Chlorophenyl)-9-(4-chlorophenyl)-9H-purin-6-yl]-piperidin-4-yl}-3-(1-methyl-1H-pyrazol-4-yl)urea] | 28000 ± 8000 | –
19 | O=C(NCC1CCCCC1)NC1CCN(c2ncnc3c2nc(-c2ccccc2Cl)n3-c2ccc(C(F)(F)F)nc2)CC1 [Compound 42, 3-{1-[8-(2-Chlorophenyl)-9-[6-(trifluoromethyl)pyridin-3-yl]-9H-purin-6-yl]piperidin-4-yl}-1-(cyclohexylmethyl)urea] | 76 ± 34 | –
20 | O=C(Nc1ccccc1F)NC1CCN(c2ncnc3c2nc(-c2ccccc2Cl)n3-c2ccc(F)cc2)CC1 [Compound 44, 3-{1-[8-(2-Chlorophenyl)-9-(4-fluorophenyl)-9H-purin-6-yl]-piperidin-4-yl}-1-(2-fluorophenyl)urea] | 3800 ± 1500 | –
21 | CC1(NC(=O)NC2CCCCC2)CCN(c2ncnc3c2nc(-c2ccccc2Cl)n3-c2ccc(Cl)cc2)CC1 [Compound 47, 3-{1-[8-(2-Chlorophenyl)-9-(4-chlorophenyl)-9H-purin-6-yl]-4-methylpiperidin-4-yl}-1-cyclohexylurea] | 7 ± 5 | Selectivity Ki CB2/CB1 (hCB1 [7]): >769
22 | CC1(NC(=O)NC2CCC(F)(F)CC2)CCN(c2ncnc3c2nc(-c2ccccc2Cl)n3-c2ccc(Cl)cc2)CC1 [Compound 48, 3-{1-[8-(2-Chlorophenyl)-9-(4-chlorophenyl)-9H-purin-6-yl]-4-methylpiperidin-4-yl}-1-(4,4-difluorocyclohexyl)urea] | 2 ± 1 | –
23 | CC1(NC(=O)NCc2ccccc2F)CCN(c2ncnc3c2nc(-c2ccccc2Cl)n3-c2ccc(Cl)cc2)CC1 [Compound 49, 3-{1-[8-(2-Chlorophenyl)-9-(4-chlorophenyl)-9H-purin-6-yl]-4-methylpiperidin-4-yl}-1-[(2-fluorophenyl)methyl]urea] | 14 ± 7 | –
24 | CC1(NC(=O)Nc2ccccc2F)CCN(c2ncnc3c2nc(-c2ccccc2Cl)n3-c2ccc(Cl)cc2)CC1 [Compound 50, 3-{1-[8-(2-Chlorophenyl)-9-(4-chlorophenyl)-9H-purin-6-yl]-4-methylpiperidin-4-yl}-1-(2-fluorophenyl)urea] | 1.6 ± 1.1 | –
25 | CC1(NC(=O)Nc2ccc(F)cc2F)CCN(c2ncnc3c2nc(-c2ccccc2Cl)n3-c2ccc(Cl)cc2)CC1 [Compound 51, 3-{1-[8-(2-Chlorophenyl)-9-(4-chlorophenyl)-9H-purin-6-yl]-4-methylpiperidin-4-yl}-1-(2,4-difluorophenyl)urea] | 9 ± 4 | –
26 | CC1(NC(=O)Nc2ccc(OC(F)F)nc2)CCN(c2ncnc3c2nc(-c2ccccc2Cl)n3-c2ccc(Cl)cc2)CC1 [Compound 52, 3-{1-[8-(2-Chlorophenyl)-9-(4-chlorophenyl)-9H-purin-6-yl]-4-methylpiperidin-4-yl}-1-[6-(difluoromethoxy)pyridin-3-yl]urea] | 46 ± 23 | –
27 | CC1(NS(=O)(=O)NC2CCCCC2)CCN(c2ncnc3c2nc(-c2ccccc2Cl)n3-c2ccc(Cl)cc2)CC1 [Compound 54, N-Cyclohexyl({1-[8-(2-chlorophenyl)-9-(4-chlorophenyl)-9H-purin-6-yl]-4-methylpiperidin-4-yl}amino)sulfonamide] | 17 ± 3 | –
